As a reminder, the LD50 is the dose at which mortality reaches 50%. Lower therefore signals a more toxic substance.

This is an account of results in patent USRE29883E, “Antibacterial product” (Cosan Chemical Corporation, priority 1977, dated 1979).

The conditions of data set [1]: data available from Dow Chemical on Dowicil 200; cited from earlier work.
The conditions of data set [2]: data available from Dow Chemical on Dowicil 100; cited from earlier work.
The next data set has as its system bacterial cultures. As to the kind of experiment: microbial stability of oil-water hair dressing emulsion (Example 5). Particulars: 0.2% adduct in oil-water hair dressing emulsion; after 6 months at 35° C. As for the experimental part:
The following is a formulation for an oil-water hair dressing emulsion: […]
Part A is heated to 75° C. and Part B is heated to 70° C. The test compound (Part C) is dissolved in Part B and the resulting solution added to Part A with good agitation. The mixture was perfumed 45° C. and agitated until cold.
The composition prepared above was tested for microbial stability for a period of 6 months and after 6 months at 35° C.

For data set [3], the system named is gram positive and gram negative microorganisms. Description: antimicrobial spectrum, general statement. From the text: The two-to-one quaternary ammonium adduct of this invention is particularly useful as an antimicrobial agent in a wide variety of water-based systems such as latex paints, resin emulsions, joint cement, adhesives, dispersed pigments and dyes, and other similar aqueous compositions.

The next data set in a line: water solubility. Type of data set: physicochemical.
For another data set, the system named is Pseudomonas aeruginosa. Description: antibacterial properties of latex paint inoculated with Pseudomonas aeruginosa (Example 4). Particulars: 3.6 grams adduct in vinyl acrylic paint. As for the experimental part:
To a 1 gallon stainless steel beaker, equipped with a sheer type agitator, the following ingredients are charged in sequence:
This premix is then added to the above with agitation such that excessive air is not incorporated. To the above prepared combination is added 1,401 grams of a vinyl acrylic resin emulsion and mixed for a period of 10 minutes.
The resulting paint prepared above was examined for antibacterial properties by inoculating a portion with approximately 10^8 organisms per ml Pseudomonas aeruginosa. Paint samples returned to sterility within 24 hours of inoculation and maintained the same degree of preservation for periods in excess of 9 months, at which time the testing was discontinued.

Another data set has as its system common forms of bacteria. Description: antimicrobial effectiveness in water-based systems, general statement. Particulars: relative to suggested range 0.05% to 0.20%. From the text: The two-to-one quaternary ammonium adduct of this invention is useful in the preparation and storage of systems susceptible to deterioration by microorganisms such as the common forms of bacteria. The exact concentration of the adduct during use is dependent upon a number of factors including duration of storage, temperature of storage, etc.

The next data set in a line: thermal decomposition. The data set is classed as physicochemical.
A short description of another data set: Acute Oral LD50. Particulars: in vivo, standard, accepted protocols. From the text:
(§1) Both the acute oral LD50 and acute dermal LD50 tests were run in accordance with standard, accepted protocols.

A further data set in a line: Acute Dermal LD50. Particulars: in vivo, topical or ocular, standard, accepted protocols.
From the text: as §1

A short description of data set [4]: toxicological comparison with the one-to-one adducts (acute dermal and acute oral LD50). Type of data set: in vivo.
From the text: Additionally, the two-to-one adduct formed from hexamethylenetetramine and 3,4-dichlorobutene-1 according to this invention is less toxic than either the Frank or Wolf one-to-one adducts.
as §1

As for `ClC=CC[N+]12CN3CN(CN(C3)C1)C2`, the “Acute Dermal LD50” value in data set [1] was 540 mg/kg. Besides, the “Acute Oral LD50” value in data set [2] is on record as 745 mg/kg.
Consider `C(=CC[N+]12CN3CN(CN(C3)C1)C2)C[N+]12CN3CN(CN(C3)C1)C2` [1,1'-(but-2-enylene) bis(3,5,7-triaza-1-azoniaadamantane chloride)], for which the “resistance to bacterial contamination on inoculation with bacterial cultures” value with bacterial cultures is given as “still resistant to bacterial contamination”. Moreover, the effectiveness against microorganisms result in data set [3] is “effective against a broad spectrum of gram positive and gram negative microorganisms”. Further, the water solubility entry in the data set “water solubility” was “water-soluble”. Further, in the data set on Pseudomonas aeruginosa, the “preservation of paint viscosity, stability and performance characteristics” value was “maintained the viscosity, stability and performance characteristics of the paint”. In the data set on Pseudomonas aeruginosa (approximately 10^8 organisms per ml Pseudomonas aeruginosa), the “time for paint samples to return to sterility after inoculation” value was ≤ 24 h. In the data set with Pseudomonas aeruginosa (testing then discontinued), the “period for which the same degree of preservation was maintained” value is > 9 months. Besides, in the data set with common forms of bacteria, the “minimal inhibitory concentrations vis-a-vis the common bacteria” value was “much less than this suggested range”. In addition, the decomposition point entry in the data set “thermal decomposition” is “about 130 °C”. Also, the 50% lethal dose (LD50) was found to be 3400 mg/kg in the data set “Acute Oral LD50” and 8000 mg/kg in “Acute Dermal LD50”. Besides, the “toxicity relative to the Frank or Wolf one-to-one adducts” value in [4] is on record as “less toxic”.
With `ClCC=CC[N+]12CN3CN(CN(C3)C1)C2` [reference compound], the figures for the LD50 in the data set “Acute Oral LD50” and in the data set “Acute Dermal LD50” were 1600 mg/kg and 2000 mg/kg, respectively.
